Like-named read-outs stand apart in the source and are kept apart here.
Assays:
GST-PPARG-LBD = GST-PPARG-LBD (Homo sapiens (Human), UniProt P37231); assay: Lanthascreen PPARG competitive binding assay (Invitrogen, TR-FRET); conditions: NA = not active, inc = incomplete curve, read-out: IC50 (nM) Lantha
How it was run: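 TR-FRET competitive binding of GST-PPARG-LBD with 5 nM Tb-GST-antibody and 5 nM Fluormone Pan-PPAR Green tracer, in TR-FRET buffer C. Compound serially diluted from 10 μM, 2 h dark incubation, in triplicate. Readout is 520/490 nm emission ratio (340 nm excitation), expressed as fold change over 2% DMSO control.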

[1] = target: Gal-4-PPAR (human PPAR LBD fused to GAL4 DNA-binding domain) (Homo sapiens (Human), UniProt P37231); assay: GAL4-PPARG LBD / UAS-luciferase transactivation assay in HEK 293T cells; assay type: cell-based
Gal-4-PPAR (human PPAR LBD fused to GAL4 DNA-binding domain), sequence (P37231 238-503): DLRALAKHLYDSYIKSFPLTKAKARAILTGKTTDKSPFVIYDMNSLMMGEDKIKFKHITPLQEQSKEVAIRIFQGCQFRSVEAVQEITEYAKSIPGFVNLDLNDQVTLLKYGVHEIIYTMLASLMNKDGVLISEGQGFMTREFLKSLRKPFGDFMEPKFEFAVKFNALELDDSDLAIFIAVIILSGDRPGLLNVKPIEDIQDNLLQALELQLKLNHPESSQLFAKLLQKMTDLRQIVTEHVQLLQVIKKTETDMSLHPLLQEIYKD

[2] = Lanthascreen competitive binding
[3] = GAL4 transactivation, HEK 293T cells; NA = not active; read-out: EC50 (nM) GAL4
[4] = HEK-293T, 18 h; read-out: % transactivation at 10 μM (GAL4)
[5] = Lanthascreen PPARG competitive binding
[6] = GAL4 transactivation; read-out: EC50 (nM) GAL4
[7] = HEK-293T, 18 h, read-out: % transactivation at 10 μM (GAL4)

GST-PPARG-LBD, sequence (P37231 238-503): as above

activation at 10 µM [1, 7] [%]	SMILES	IC50 (GST-PPARG-LBD; [2]) [nM]	EC50 [1, 3] [nM]	activation at 10 µM [1, 4] [%]	IC50 (GST-PPARG-LBD; [5]) [nM]	EC50 [1, 6] [nM]	EC50 [1] [nM]
–	Cc1c(C)n(Cc2ccc(-c3ccccc3C(=O)O)cc2)c2ccc(C(=O)N[C@@H](C)c3ccc(C(F)(F)F)cc3C(F)(F)F)cc12 [Example 210, (S)-4′-((5-((1-(2,4-bis(trifluoromethyl)phenyl)ethyl)carbamoyl)-2,3-dimethyl-1H-indol-1-yl)methyl)-[1,1′-biphenyl]-2-carboxylic acid]	241	1290	20	–	–	–
–	Cc1c(C)n(Cc2ccc(-c3ccccc3C(=O)O)cc2)c2ccc(C(=O)N[C@@H](C)c3ccc(Cl)c(Cl)c3)cc12 [Example 220, (S)-4′-((5-((1-(3,4-dichlorophenyl)ethyl)carbamoyl)-2,3-dimethyl-1H-indol-1-yl)methyl)-[1,1′-biphenyl]-2-carboxylic acid]	10	142	30	–	–	–
–	Cc1c(C)n(Cc2ccc(-c3ccccc3C(=O)O)cc2)c2ccc(C(=O)N[C@H](C)c3ccncc3)cc12 [Example 169, (R)-4′-((2,3-dimethyl-5-((1-(pyridin-4-yl)ethyl)carbamoyl)-1H-indol-1-yl)methyl)-[1,1′-biphenyl]-2-carboxylic acid]	11	608	20	–	–	–
–	Cc1c(C)n(Cc2ccc(-c3ccccc3C(=O)O)cc2)c2ccc(C(=O)NC(C)c3cncc(C4CC4)c3)cc12 (stereo not drawn) [Example 259, 4′-((5-(1-(5-cyclopropylpyridin-3-yl)ethylcarbamoyl)-2,3-dimethyl-1H-indol-1-yl)methyl)biphenyl-2-carboxylic acid]	19	1480	15	–	–	–
–	Cc1c(C)n(Cc2ccc(-c3ccccc3C(=O)O)cc2)c2ccc(C(=O)N[C@@H](C)c3ccc(Cl)cc3Cl)cc12 [Example 303, (S)-4′-((5-((1-(2,4-Dichlorophenyl)ethyl)carbamoyl)-2,3-dimethyl-1H-indol-1-yl)methyl)-[1,1′-biphenyl]-2-carboxylic acid]	–	–	25	4	219	–
–	COc1cc(OC)cc([C@H](C)NC(=O)c2ccc3c(c2)c(C)c(C)n3Cc2ccc(-c3ccccc3C(=O)O)cc2)c1 [Example 147, (S)-4′-((5-((1-(3,5-dimethoxyphenyl)ethyl)carbamoyl)-2,3-dimethyl-1H-indol-1-yl)methyl)-[1,1′-biphenyl]-2-carboxylic acid]	20	9280	20	–	–	–
–	CCCc1ccc([C@H](C)NC(=O)c2ccc3c(c2)c(C)c(C)n3Cc2ccc(-c3ccccc3C(=O)O)cc2)cc1 [Example 251, (S)-4′-((2,3-dimethyl-5-(1-(4-propylphenyl)ethylcarbamoyl)-1H-indol-1-yl)methyl)biphenyl-2-carboxylic acid]	40	1610	30	–	–	–
–	Cc1c(C)n(Cc2ccc(-c3ccccc3C(=O)O)cc2)c2ccc(C(=O)N[C@H](C)c3ccccc3C(F)(F)F)cc12 [Example 207, (R)-4′-((2,3-dimethyl-5-((1-(2-(trifluoromethyl)phenyl)ethyl)carbamoyl)-1H-indol-1-yl)methyl)-[1,1′-biphenyl]-2-carboxylic acid]	1	629	20	–	–	–
–	Cc1c(C)n(Cc2ccc(-c3ccccc3C(=O)O)cc2)c2ccc(C(=O)N[C@@H](C)c3ccnc(C4CC4)c3)cc12 [Example 268, (S)-4′-((5-(1-(2-cyclopropylpyridin-4-yl)ethylcarbamoyl)-2,3-dimethyl-1H-indol-1-yl)methyl)biphenyl-2-carboxylic acid]	352	8970	20	–	–	–
20	Cc1c(C)n(Cc2ccc(-c3ccccc3C(=O)O)cc2)c2ccc(C(=O)N[C@@H](C)c3cc(F)ccc3C(F)(F)F)cc12 [Example 241, (S)-4′-((5-((1-(5-fluoro-2-(trifluoromethyl)phenyl)ethyl)carbamoyl)-2,3-dimethyl-1H-indol-1-yl)methyl)-[1,1′-biphenyl]-2-carboxylic acid]	57	453	–	–	–	–
10	Cc1c(C)n(Cc2ccc(-c3ccccc3C(=O)O)cc2)c2ccc(C(=O)N[C@H](C)c3cccc(Cl)c3Cl)cc12 [Example 171, (R)-4′-((5-((1-(2,3-dichlorophenyl)ethyl)carbamoyl)-2,3-dimethyl-1H-indol-1-yl)methyl)-[1,1′-biphenyl]-2-carboxylic acid]	5	388	–	–	–	–
–	COc1ccc([C@H](C)NC(=O)c2ccc3c(c2)c(C)c(C)n3Cc2ccc(-c3ccccc3C(=O)O)cc2)cc1Cl [Example 197, (S)-4′-((5-((1-(3-chloro-4-methoxyphenyl)ethyl)carbamoyl)-2,3-dimethyl-1H-indol-1-yl)methyl)-[1,1′-biphenyl]-2-carboxylic acid]	17	1630	20	–	–	–
–	Cc1c(C)n(Cc2ccc(-c3ccccc3C(=O)O)cc2)c2ccc(C(=O)N[C@@H](C)c3cccc4ccccc34)cc12 [Example 152, (S)-4′-((2,3-dimethyl-5-((1-(naphthalen-1-yl)ethyl)carbamoyl)-1H-indol-1-yl)methyl)-[1,1′-biphenyl]-2-carboxylic acid]	256	766	17	–	–	–
–	Cc1c(C)n(Cc2ccc(-c3ccccc3C(=O)O)cc2)c2ccc(C(=O)N[C@@H](C)c3ccnc4ccccc34)cc12 [Example 149, (S)-4′-((2,3-dimethyl-5-((1-(quinolin-4-yl)ethyl)carbamoyl)-1H-indol-1-yl)methyl)-[1,1′-biphenyl]-2-carboxylic acid]	6	1680	15	–	–	–
–	Cc1c(C)n(Cc2ccc(-c3ccccc3C(=O)O)cc2)c2ccc(C(=O)N[C@@H](C)c3ccccc3C(F)(F)F)cc12 [Example 208, (S)-4′-((2,3-dimethyl-5-((1-(2-(trifluoromethyl)phenyl)ethyl)carbamoyl)-1H-indol-1-yl)methyl)-[1,1′-biphenyl]-2-carboxylic acid]	22	369	20	–	–	–
–	Cc1c(C)n(Cc2ccc(-c3ccccc3C(N)=O)cc2)c2ccc(C(=O)N[C@@H](C)c3cccc(C(C)C)c3)cc12 [Example 315, (S)-1-((2′-Carbamoyl-[1,1′-biphenyl]-4-yl)methyl)-N-(1-(3-isopropylphenyl)ethyl)-2,3-dimethyl-1H-indole-5-carboxamide]	–	–	2	62	–	137
–	Cc1c(C)n(Cc2ccc(-c3ccccc3C(=O)O)cc2)c2ccc(C(=O)N[C@H](C)c3ccnc(Br)c3)cc12 [Example 269, (R)-4′-((5-(1-(2-bromopyridin-4-yl)ethylcarbamoyl)-2,3-dimethyl-1H-indol-1-yl)methyl)biphenyl-2-carboxylic acid]	8	907	40	–	–	–
–	Cc1c(C)n(Cc2ccc(-c3ccccc3C(=O)O)cc2)c2ccc(C(=O)N[C@@H](C)c3c(Cl)cccc3Cl)cc12 [Example 142, (S)-4′-((5-((1-(2,6-dichlorophenyl)ethyl)carbamoyl)-2,3-dimethyl-1H-indol-1-yl)methyl)-[1,1′-biphenyl]-2-carboxylic acid]	51	6060	15	–	–	–
–	Cc1c(C)n(Cc2ccc(-c3ccccc3C(=O)O)cc2)c2ccc(C(=O)N[C@@H](C)c3c(F)cccc3C(F)(F)F)cc12 [Example 300, (S)-4′-((5-((1-(2-Fluoro-6-(trifluoromethyl)phenyl)ethyl)carbamoyl)-2,3-dimethyl-1H-indol-1-yl)methyl)-[1,1′-biphenyl]-2-carboxylic acid]	–	–	15	9	167	–
–	Cc1c(C)n(Cc2ccc(-c3ccccc3C(=O)NS(C)(=O)=O)cc2)c2ccc(C(=O)N[C@@H](C)c3cccc(C(C)C)c3)cc12 [Example 314, (S)—N-(1-(3-Isopropylphenyl)ethyl)-2,3-dimethyl-1-((2′-((methylsulfonyl)carbamoyl)-[1,1′-biphenyl]-4-yl)methyl)-1H-indole-5-carboxamide]	–	–	5	285	1650	–
–	Cc1c(C)n(Cc2ccc(-c3ccccc3C(=O)O)cc2)c2ccc(C(=O)N[C@@H](C)c3ccc(C(F)(F)F)nc3)cc12 [Example 217, (S)-4′-((2,3-dimethyl-5-((1-(6-(trifluoromethyl)pyridin-3-yl)ethyl)carbamoyl)-1H-indol-1-yl)methyl)-[1,1′-biphenyl]-2-carboxylic acid]	230	2800	15	–	–	–
–	Cc1c(C)n(Cc2ccc(-c3ccccc3C(=O)O)cc2)c2ccc(C(=O)N[C@@H](C)c3ccc(C(F)(F)F)c(F)c3)cc12 [Example 228, (S)-4′-((5-((1-(3-fluoro-4-(trifluoromethyl)phenyl)ethyl)carbamoyl)-2,3-dimethyl-1H-indol-1-yl)methyl)-[1,1′-biphenyl]-2-carboxylic acid]	53	1060	15	–	–	–
–	COc1ccccc1[C@H](C)NC(=O)c1ccc2c(c1)c(C)c(C)n2Cc1ccc(-c2ccccc2C(=O)O)cc1 [Example 175, (S)-4′-((5-((1-(2-methoxyphenyl)ethyl)carbamoyl)-2,3-dimethyl-1H-indol-1-yl)methyl)-[1,1′-biphenyl]-2-carboxylic acid]	16	360	20	–	–	–

— patent US8957093B2, “N-biphenylmethylindole modulators of PPARG” (The Scripps Research Institute, priority 2011, dated 2015)
